Assay results reported in ChEMBL document CHEMBL1150882, “Nitrogen-containing furanose and pyranose analogues from Hyacinthus orientalis” (J Nat Prod, 1998).

Legend:
[1] = molecular target: T1, Uncharacterized protein (Sus scrofa) (UniProt I3LIR5); settings: 1000 uM
T1 sequence (whole entry): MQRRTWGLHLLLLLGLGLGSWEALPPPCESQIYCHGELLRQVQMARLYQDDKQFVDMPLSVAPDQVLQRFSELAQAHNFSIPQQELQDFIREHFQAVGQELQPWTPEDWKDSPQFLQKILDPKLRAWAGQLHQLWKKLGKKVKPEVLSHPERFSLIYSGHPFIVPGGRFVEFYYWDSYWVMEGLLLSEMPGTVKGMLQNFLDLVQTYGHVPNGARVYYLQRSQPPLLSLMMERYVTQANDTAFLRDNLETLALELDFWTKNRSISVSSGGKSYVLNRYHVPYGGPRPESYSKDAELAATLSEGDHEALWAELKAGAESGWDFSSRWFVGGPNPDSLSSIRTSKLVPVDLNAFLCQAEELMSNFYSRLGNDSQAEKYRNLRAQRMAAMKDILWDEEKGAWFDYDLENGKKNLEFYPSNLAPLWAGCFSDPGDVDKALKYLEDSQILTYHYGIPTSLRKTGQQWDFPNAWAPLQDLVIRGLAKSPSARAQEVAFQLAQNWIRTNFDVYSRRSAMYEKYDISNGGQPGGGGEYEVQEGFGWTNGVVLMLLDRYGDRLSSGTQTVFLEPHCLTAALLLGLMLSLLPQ
Description: Inhibition of pig kidney alpha alpha-trehalase at 1000 uM

[2] = Inhibition of rice alpha-glucosidase; parameters: species or system Oryza sativa
[3] = Inhibition of Wistar rat intestinal alpha alpha-trehalase
[4] = molecular target: Sucrase-isomaltase, intestinal (Rattus norvegicus) (UniProt P23739); settings: Wistar, 1000 uM
Description: Inhibition of Wistar rat intestinal isomaltase at 1000 uM

[5] = Inhibition of Caldocellum saccharolyticum beta-glucosidase; parameters: species or system Caldicellulosiruptor saccharolyticus
[6] = molecular target: Lactase/phlorizin hydrolase (Rattus norvegicus, UniProt Q02401); test: Inhibition of Wistar rat intestinal lactase
[7] = Inhibition of bovine liver beta-galactosidase; parameters: species or system Bos taurus
[8] = molecular target: Sucrase-isomaltase, intestinal (Rattus norvegicus, UniProt P23739); test: Inhibition of Wistar rat intestinal sucrase
Bos taurus = species: Bos taurus; settings: 1000 uM
Description: Inhibition of bovine liver beta-galactosidase at 1000 uM

[9] = molecular target: Lysosomal alpha-glucosidase (Rattus norvegicus) (UniProt Q6P7A9); settings: Wistar, 1000 uM
Description: Inhibition of Wistar rat liver lysosomal alpha-glucosidase at 1000 uM

[10] = tested on: Caldicellulosiruptor saccharolyticus; settings: 1000 uM
Description: Inhibition of Caldocellum saccharolyticum beta-glucosidase at 1000 uM

Oryza sativa = settings: 1000 uM
Description: Inhibition of rice alpha-glucosidase at 1000 uM

Rattus norvegicus = species: Rattus norvegicus; settings: Wistar, 1000 uM
Description: Inhibition of Wistar rat intestinal alpha alpha-trehalase at 1000 uM

[11] = molecular target: T2, Tissue alpha-L-fucosidase (Bos taurus, UniProt Q2KIM0); test: Inhibition of bovine epididymis alpha-L-fucosidase at 1000 uM
T2 sequence (Q2KIM0 whole entry): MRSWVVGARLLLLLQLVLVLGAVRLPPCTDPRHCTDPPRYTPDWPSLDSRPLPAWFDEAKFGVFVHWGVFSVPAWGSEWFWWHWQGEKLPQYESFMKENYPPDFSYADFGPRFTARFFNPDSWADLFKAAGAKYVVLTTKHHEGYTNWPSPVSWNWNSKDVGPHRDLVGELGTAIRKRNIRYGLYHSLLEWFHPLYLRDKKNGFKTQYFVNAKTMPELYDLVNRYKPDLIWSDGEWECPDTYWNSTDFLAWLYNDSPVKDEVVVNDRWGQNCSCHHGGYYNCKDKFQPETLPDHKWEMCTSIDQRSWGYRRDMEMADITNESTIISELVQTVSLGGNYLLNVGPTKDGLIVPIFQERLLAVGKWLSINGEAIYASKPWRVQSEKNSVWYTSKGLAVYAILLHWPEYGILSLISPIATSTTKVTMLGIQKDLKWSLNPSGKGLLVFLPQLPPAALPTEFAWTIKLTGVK

[12] = molecular target: Lactase/phlorizin hydrolase (Rattus norvegicus) (UniProt Q02401); settings: Wistar, 1000 uM
Description: Inhibition of Wistar rat intestinal lactase at 1000 uM

[13] = molecular target: Sucrase-isomaltase, intestinal (Rattus norvegicus) (UniProt P23739); settings: Wistar, 1000 uM; remark: listed apart in the source
Description: Inhibition of Wistar rat intestinal sucrase at 1000 uM

[14] = molecular target: Lysosomal alpha-glucosidase (Rattus norvegicus) (UniProt Q6P7A9); settings: Wistar, 1000 uM; remark: listed apart in the source
Description: Inhibition of Wistar rat intestinal maltase at 1000 uM

[15] = Inhibition of almond beta-glucosidase; parameters: species or system Prunus dulcis
[16] = Inhibition of yeast alpha-glucosidase; parameters: species or system Saccharomyces cerevisiae
Uncharacterized protein = molecular target: T3, Uncharacterized protein (Sus scrofa, UniProt I3LIR5); test: Inhibition of pig kidney alpha alpha-trehalase
T3 sequence (I3LIR5 whole entry): T1 sequence (whole entry)

Chain of Sucrase-isomaltase, intestinal (Rattus norvegicus) (P23739 1-1013 limits assumed): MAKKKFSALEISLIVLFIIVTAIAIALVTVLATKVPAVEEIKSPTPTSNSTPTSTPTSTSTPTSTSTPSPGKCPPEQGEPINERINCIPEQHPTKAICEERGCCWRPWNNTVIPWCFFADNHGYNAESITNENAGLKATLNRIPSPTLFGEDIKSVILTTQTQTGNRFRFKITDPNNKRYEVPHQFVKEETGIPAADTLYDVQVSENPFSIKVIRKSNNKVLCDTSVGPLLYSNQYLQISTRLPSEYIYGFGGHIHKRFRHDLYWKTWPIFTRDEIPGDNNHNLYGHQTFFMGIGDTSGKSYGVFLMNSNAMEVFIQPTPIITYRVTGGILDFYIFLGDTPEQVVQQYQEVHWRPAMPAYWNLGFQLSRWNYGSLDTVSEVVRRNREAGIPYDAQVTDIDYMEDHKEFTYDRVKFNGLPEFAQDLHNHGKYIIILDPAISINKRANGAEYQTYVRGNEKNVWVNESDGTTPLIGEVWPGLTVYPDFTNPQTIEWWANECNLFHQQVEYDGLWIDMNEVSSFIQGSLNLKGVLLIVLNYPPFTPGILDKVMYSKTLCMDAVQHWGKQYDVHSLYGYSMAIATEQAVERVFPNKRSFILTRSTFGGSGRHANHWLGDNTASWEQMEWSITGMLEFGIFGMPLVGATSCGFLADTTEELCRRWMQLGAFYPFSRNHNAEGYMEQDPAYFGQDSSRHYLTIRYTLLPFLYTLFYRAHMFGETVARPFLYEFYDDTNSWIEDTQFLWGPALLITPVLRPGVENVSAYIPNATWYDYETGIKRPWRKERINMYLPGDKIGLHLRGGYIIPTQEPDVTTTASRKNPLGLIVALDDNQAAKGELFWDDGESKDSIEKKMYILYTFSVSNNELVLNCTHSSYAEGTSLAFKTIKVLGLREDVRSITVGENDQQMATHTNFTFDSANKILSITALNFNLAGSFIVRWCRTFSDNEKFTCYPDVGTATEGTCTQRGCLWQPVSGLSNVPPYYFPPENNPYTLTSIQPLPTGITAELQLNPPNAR
Chain of Sucrase-isomaltase, intestinal (Rattus norvegicus) (P23739 1014-1841 limits assumed): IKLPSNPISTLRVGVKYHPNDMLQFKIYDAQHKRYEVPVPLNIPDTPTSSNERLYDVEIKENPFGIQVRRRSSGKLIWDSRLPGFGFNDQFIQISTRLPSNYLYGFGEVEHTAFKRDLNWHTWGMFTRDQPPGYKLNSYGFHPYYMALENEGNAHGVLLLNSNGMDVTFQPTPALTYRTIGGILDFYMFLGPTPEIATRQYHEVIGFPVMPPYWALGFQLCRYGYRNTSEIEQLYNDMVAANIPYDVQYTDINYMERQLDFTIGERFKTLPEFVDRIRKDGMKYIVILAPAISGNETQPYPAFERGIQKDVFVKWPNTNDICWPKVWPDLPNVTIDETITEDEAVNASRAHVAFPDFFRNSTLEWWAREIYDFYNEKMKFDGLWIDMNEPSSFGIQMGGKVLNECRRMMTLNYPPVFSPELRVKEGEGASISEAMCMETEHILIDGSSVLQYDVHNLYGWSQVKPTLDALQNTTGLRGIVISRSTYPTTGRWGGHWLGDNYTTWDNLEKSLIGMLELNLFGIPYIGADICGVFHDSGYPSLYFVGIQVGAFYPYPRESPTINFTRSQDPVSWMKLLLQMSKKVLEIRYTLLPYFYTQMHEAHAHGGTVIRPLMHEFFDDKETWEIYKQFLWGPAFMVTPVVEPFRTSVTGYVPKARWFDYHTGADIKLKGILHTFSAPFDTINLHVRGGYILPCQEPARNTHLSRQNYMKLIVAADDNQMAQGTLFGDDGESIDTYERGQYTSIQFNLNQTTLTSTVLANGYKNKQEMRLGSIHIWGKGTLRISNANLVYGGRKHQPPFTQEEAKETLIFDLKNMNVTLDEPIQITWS
Chain of Lysosomal alpha-glucosidase (Rattus norvegicus) (Q6P7A9 whole entry): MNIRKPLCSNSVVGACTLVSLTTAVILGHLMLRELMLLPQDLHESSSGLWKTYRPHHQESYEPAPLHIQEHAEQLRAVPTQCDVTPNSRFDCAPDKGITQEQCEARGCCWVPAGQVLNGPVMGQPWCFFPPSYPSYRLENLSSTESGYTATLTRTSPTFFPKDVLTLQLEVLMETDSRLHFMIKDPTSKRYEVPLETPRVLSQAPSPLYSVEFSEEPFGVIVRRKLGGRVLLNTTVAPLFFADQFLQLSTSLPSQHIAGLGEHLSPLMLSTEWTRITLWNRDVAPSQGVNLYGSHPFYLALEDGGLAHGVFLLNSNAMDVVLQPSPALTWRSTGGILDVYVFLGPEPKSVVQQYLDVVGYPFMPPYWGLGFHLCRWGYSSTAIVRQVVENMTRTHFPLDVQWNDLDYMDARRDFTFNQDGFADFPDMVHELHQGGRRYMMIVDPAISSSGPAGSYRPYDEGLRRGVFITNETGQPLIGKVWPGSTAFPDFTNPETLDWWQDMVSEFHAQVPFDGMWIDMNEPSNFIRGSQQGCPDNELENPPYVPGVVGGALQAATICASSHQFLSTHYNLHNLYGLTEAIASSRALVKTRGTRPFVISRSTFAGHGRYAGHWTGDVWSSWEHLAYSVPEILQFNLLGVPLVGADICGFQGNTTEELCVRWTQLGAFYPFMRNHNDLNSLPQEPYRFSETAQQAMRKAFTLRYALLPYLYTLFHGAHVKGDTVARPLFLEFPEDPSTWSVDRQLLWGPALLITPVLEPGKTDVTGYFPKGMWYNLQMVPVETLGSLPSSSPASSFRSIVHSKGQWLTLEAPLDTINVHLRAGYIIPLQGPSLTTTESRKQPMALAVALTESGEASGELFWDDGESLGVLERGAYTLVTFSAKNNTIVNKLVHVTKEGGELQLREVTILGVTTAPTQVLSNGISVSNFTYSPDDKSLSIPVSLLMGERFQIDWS
Chain of Sucrase-isomaltase, intestinal (P23739 1-1013 limits assumed): as the sequence (P23739 1-1013 limits assumed) above
Chain of Sucrase-isomaltase, intestinal (P23739 1014-1841 limits assumed): as the sequence (P23739 1014-1841 limits assumed) above
Chain of Lactase/phlorizin hydrolase (Q02401 868-1928 limits assumed): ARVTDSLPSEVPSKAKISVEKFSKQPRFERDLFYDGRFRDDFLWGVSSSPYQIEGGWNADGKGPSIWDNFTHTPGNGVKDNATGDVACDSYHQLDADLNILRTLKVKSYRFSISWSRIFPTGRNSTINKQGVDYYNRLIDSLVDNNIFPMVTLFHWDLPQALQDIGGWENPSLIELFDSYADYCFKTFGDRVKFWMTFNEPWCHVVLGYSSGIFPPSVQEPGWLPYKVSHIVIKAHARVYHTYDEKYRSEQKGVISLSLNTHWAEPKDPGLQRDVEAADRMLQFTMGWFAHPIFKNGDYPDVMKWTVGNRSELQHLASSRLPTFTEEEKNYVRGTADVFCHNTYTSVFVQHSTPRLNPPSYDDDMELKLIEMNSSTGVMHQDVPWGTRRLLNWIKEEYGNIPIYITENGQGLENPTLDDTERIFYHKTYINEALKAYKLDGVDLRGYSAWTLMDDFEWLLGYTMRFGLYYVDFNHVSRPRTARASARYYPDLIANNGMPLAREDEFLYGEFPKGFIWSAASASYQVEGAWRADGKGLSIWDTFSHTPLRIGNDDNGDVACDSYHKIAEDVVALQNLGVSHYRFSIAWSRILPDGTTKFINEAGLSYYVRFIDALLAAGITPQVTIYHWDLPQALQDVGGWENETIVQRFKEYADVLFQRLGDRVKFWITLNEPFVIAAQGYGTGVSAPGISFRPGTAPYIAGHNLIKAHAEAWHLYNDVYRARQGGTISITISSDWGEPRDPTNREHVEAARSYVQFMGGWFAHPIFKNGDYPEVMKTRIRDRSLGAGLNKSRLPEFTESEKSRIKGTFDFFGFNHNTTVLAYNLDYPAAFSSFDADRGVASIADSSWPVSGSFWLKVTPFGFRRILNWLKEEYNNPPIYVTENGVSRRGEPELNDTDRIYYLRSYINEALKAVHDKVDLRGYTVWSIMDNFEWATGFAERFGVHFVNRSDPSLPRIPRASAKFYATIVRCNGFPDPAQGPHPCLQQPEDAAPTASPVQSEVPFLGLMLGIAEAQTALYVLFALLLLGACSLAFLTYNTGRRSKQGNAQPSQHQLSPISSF
Chain of Lactase/phlorizin hydrolase (Rattus norvegicus) (Q02401 868-1928 limits assumed): as above

Row | SMILES | inhibition [1] [%] | IC50 [2] [µM] | IC50 [3] [µM] | inhibition [4] [%] | IC50 [5] [µM] | IC50 [6] [µM] | IC50 [7] [µM] | IC50 [8] [µM] | inhibition (Bos taurus) [%] | inhibition [9] [%] | inhibition [10] [%] | inhibition (Oryza sativa) [%] | inhibition (Rattus norvegicus) [%] | IC50 [11] [µM] | inhibition [12] [%] | inhibition [13] [%] | inhibition [14] [%] | Ki [15] [µM] | Ki [16] [µM] | IC50 (Uncharacterized protein) [µM]
1 | OCC[C@H]1N[C@H](CO)[C@@H](O)[C@@H]1O | < 50 | 2.2 | 380 | < 50 | 380 | 320 | 60 | 11 |  |  |  |  |  |  |  |  |  |  |  | 
2 | OCC[C@H]1N[C@@H](CO)[C@H](O)[C@H]1O | < 50 |  |  | < 50 |  |  |  |  | < 50 | < 50 | < 50 | < 50 | < 50 | 50 | < 50 | < 50 | < 50 |  |  | 
3 | OC[C@H]1N[C@H](CO)[C@@H](O)[C@@H]1O |  | 200 |  |  | 11 |  | 2.5 |  |  |  |  |  |  |  |  | < 50 |  | 10 | 7 | 
4 | OCC(O)[C@H]1N[C@H](CO)[C@@H](O)[C@@H]1O (mixture of isomers) |  | 130 | 2 | < 50 | 3.8 | 4 | 4.4 | 300 |  | < 50 |  |  |  |  |  |  |  | 1.5 | 54 | 5
